Literature values in patent publication EP2738198A1, “Enzymatic synthesis of polyamide in aqueous mini-emulsion” (Henkel AG & Co. KGaA, priority 2012, dated 2014).

Details: alcohol CnH2n+1OH corresponding to the alkyl group of the di(alkyl) sebacate, data from Handbook of Chemistry and Physics 86th Edition

Row | Structure (SMILES) | Partial Solubility of CnH2n+1OH in water
1 | CCCCCCO [n 6] | 7900 µg/mL
2 | CCO [n 2] | ∞
3 | CCCCCCCCO [n 8] | 300 µg/mL
